# Results taken from US20060083680A1, “Diphenyl ether derivatives and their use for imaging serotonin transporters” (The Trustees of the University of Pennsylvania, priority 2004, published 2006).
# Several values for one entry are separate records, joined by “and”; a condition that tells them apart may be missing. Equal entries are not always repeated.
# Experiment: Biodistribution in rats after iv injection (organs)
# Assay type: in vivo
# Settings: for Biodistribution Blood / Biodistribution Brain / Biodistribution Heart / Biodistribution Kidney / Biodistribution Liver / Biodistribution Lung / Biodistribution Muscle / Biodistribution Skin / Biodistribution Spleen / Biodistribution Thyroid: iv
# Experimental: Biodistribution in rats: Three rats per group were used for each biodistribution study. While under ether anesthesia, 0.2 mL of a saline solution containing 10 μCi of radioactive tracer was injected into the femoral vein. The rats were sacrificed at the time indicated by cardiac excision while under ether anesthesia. Organs of interest were removed and weighed, and the radioactivity was counted. The percent dose per organ was calculated by a comparison of the tissue counts to counts of 1% of the initial dose (100 times diluted aliquots of the injected material) measured at the same time.
smiles,measurement,setting,value
"CN(C)Cc1ccccc1Oc1ccc([125I])cc1N [[^125I]4, [^125I][^123I]2-(2-(Dimethylaminomethyl)phenoxy)-5-iodophenylamine]",brain uptake,2 min post-injection,1.77 % dose and 1.77±0.07 % dose
same,Biodistribution Blood,2 min,5.75 ± 0.54 % dose/organ
same,Biodistribution Brain,2 min,1.77 ± 0.07 % dose/organ
same,Biodistribution Heart,2 min,1.51 ± 0.13 % dose/organ
same,Biodistribution Kidney,2 min,4.27 ± 0.90 % dose/organ
same,Biodistribution Liver,2 min,5.71 ± 0.88 % dose/organ
same,Biodistribution Lung,2 min,17.2 ± 2.32 % dose/organ
same,Biodistribution Muscle,2 min,25.9 ± 4.82 % dose/organ
same,Biodistribution Skin,2 min,4.45 ± 0.52 % dose/organ
same,Biodistribution Spleen,2 min,0.44 ± 0.08 % dose/organ
same,Biodistribution Thyroid,2 min,0.10 ± 0.02 % dose/organ
same,Biodistribution Blood,30 min,4.56 ± 0.20 % dose/organ
same,Biodistribution Brain,30 min,2.12 ± 0.15 % dose/organ
same,Biodistribution Heart,30 min,0.32 ± 0.04 % dose/organ
same,Biodistribution Kidney,30 min,2.67 ± 0.48 % dose/organ
same,Biodistribution Liver,30 min,7.10 ± 0.66 % dose/organ
same,Biodistribution Lung,30 min,3.56 ± 0.96 % dose/organ
same,Biodistribution Muscle,30 min,18.1 ± 0.55 % dose/organ
same,Biodistribution Skin,30 min,11.3 ± 0.78 % dose/organ
same,Biodistribution Spleen,30 min,0.84 ± 0.05 % dose/organ
same,Biodistribution Thyroid,30 min,0.15 ± 0.04 % dose/organ
same,Biodistribution Blood,60 min,3.89 ± 0.28 % dose/organ
same,Biodistribution Brain,60 min,1.74 ± 0.08 % dose/organ
same,Biodistribution Heart,60 min,0.20 ± 0.01 % dose/organ
same,Biodistribution Kidney,60 min,1.67 ± 0.21 % dose/organ
same,Biodistribution Liver,60 min,5.79 ± 0.70 % dose/organ
same,Biodistribution Lung,60 min,1.79 ± 0.06 % dose/organ
same,Biodistribution Muscle,60 min,12.9 ± 0.84 % dose/organ
same,Biodistribution Skin,60 min,13.9 ± 1.00 % dose/organ
same,Biodistribution Spleen,60 min,0.47 ± 0.02 % dose/organ
same,Biodistribution Thyroid,60 min,0.41 ± 0.11 % dose/organ
same,Biodistribution Blood,120 min,3.15 ± 0.44 % dose/organ
same,Biodistribution Brain,120 min,1.08 ± 0.06 % dose/organ
same,Biodistribution Heart,120 min,0.13 ± 0.01 % dose/organ
same,Biodistribution Kidney,120 min,1.24 ± 0.15 % dose/organ
same,Biodistribution Liver,120 min,4.90 ± 0.38 % dose/organ
same,Biodistribution Lung,120 min,0.88 ± 0.04 % dose/organ
same,Biodistribution Muscle,120 min,9.18 ± 0.65 % dose/organ
same,Biodistribution Skin,120 min,12.5 ± 2.14 % dose/organ
same,Biodistribution Spleen,120 min,0.27 ± 0.01 % dose/organ
same,Biodistribution Thyroid,120 min,0.96 ± 0.06 % dose/organ
same,Biodistribution Blood,240 min,3.12 ± 0.32 % dose/organ
same,Biodistribution Brain,240 min,0.33 ± 0.02 % dose/organ
same,Biodistribution Heart,240 min,0.08 ± 0.02 % dose/organ
same,Biodistribution Kidney,240 min,0.61 ± 0.09 % dose/organ
same,Biodistribution Liver,240 min,3.52 ± 0.20 % dose/organ
same,Biodistribution Lung,240 min,0.37 ± 0.03 % dose/organ
same,Biodistribution Muscle,240 min,6.27 ± 0.06 % dose/organ
same,Biodistribution Skin,240 min,12.6 ± 0.48 % dose/organ
same,Biodistribution Spleen,240 min,0.13 ± 0.02 % dose/organ
same,Biodistribution Thyroid,240 min,2.34 ± 1.16 % dose/organ
same,Biodistribution Blood,6 hrs,3.29 ± 0.27 % dose/organ
same,Biodistribution Brain,6 hrs,0.11 ± 0.01 % dose/organ
same,Biodistribution Heart,6 hrs,0.08 ± 0.00 % dose/organ
same,Biodistribution Kidney,6 hrs,0.55 ± 0.07 % dose/organ
same,Biodistribution Liver,6 hrs,3.59 ± 0.23 % dose/organ
same,Biodistribution Lung,6 hrs,0.25 ± 0.01 % dose/organ
same,Biodistribution Muscle,6 hrs,5.01 ± 0.42 % dose/organ
same,Biodistribution Skin,6 hrs,15.5 ± 1.50 % dose/organ
same,Biodistribution Spleen,6 hrs,0.11 ± 0.01 % dose/organ
same,Biodistribution Thyroid,6 hrs,2.68 ± 0.66 % dose/organ
same,Biodistribution Blood,11 hrs,2.52 ± 0.47 % dose/organ
same,Biodistribution Brain,11 hrs,0.02 ± 0.00 % dose/organ
same,Biodistribution Heart,11 hrs,0.06 ± 0.00 % dose/organ
same,Biodistribution Kidney,11 hrs,0.40 ± 0.10 % dose/organ
same,Biodistribution Liver,11 hrs,2.64 ± 0.19 % dose/organ
same,Biodistribution Lung,11 hrs,0.16 ± 0.00 % dose/organ
same,Biodistribution Muscle,11 hrs,4.01 ± 0.85 % dose/organ
same,Biodistribution Skin,11 hrs,10.9 ± 4.62 % dose/organ
same,Biodistribution Spleen,11 hrs,0.09 ± 0.01 % dose/organ
same,Biodistribution Thyroid,11 hrs,5.15 ± 1.49 % dose/organ
same,Biodistribution Blood,24 hrs,0.70 ± 0.06 % dose/organ
same,Biodistribution Brain,24 hrs,0.01 ± 0.00 % dose/organ
same,Biodistribution Heart,24 hrs,0.02 ± 0.00 % dose/organ
same,Biodistribution Kidney,24 hrs,0.17 ± 0.02 % dose/organ
same,Biodistribution Liver,24 hrs,1.83 ± 0.07 % dose/organ
